In brackets after ≈: the same amount, converted by molar mass.
Columns and labels:
Assay in all cases: Cytotoxicity assay (MTT)
Format in all cases: cell-based
[1] = tested on: A431 (human squamous carcinoma); settings: Homo sapiens, A-431, 120 h, A431, 5 days, value in µg/mL, read-out: half-maximum inhibitory concentration (IC50)
Method: (§1) Compounds 1−5 were dissolved as described in the previous section. The cytotoxicity assay was initially performed against the cell lines L929 (mouse fibroblasts), as well as KB 3.1 (human papillomavirus-related endocervical adenocarcinoma), as described previously. A detailed protocol, as well as sources of the cell lines, is given in the Supporting Information.
(§2) After incubating the cell lines with a serial dilution of the test compounds (final range: 37 to 0.6 × 10^−3 µg/mL) for five days, the cells were dyed using 3-(4,5-dimethyl-2-thiazolyl)-2,5-diphenyl-2H-tetrazolium bromide (MTT), which is only converted to its purple formazan derivative by living cells. Then, the intensity of the purple derivative in relation to cells without additive (set to 100% viability) for each concentration of a test compound was quantified. For this, the absorption at 595 nm was measured using a microplate reader to calculate the percentage of cell viability. From this, the half-maximum inhibitory concentration (IC50, in µM) was calculated.
(§3) If an inhibition of cell viability with an IC50 < 50 µM was observed, further cell lines were subjected to the test compounds: PC-3 (human prostate adenocarcinoma), SK-OV-3 (human ovary adenocarcinoma), MCF-7 (human breast adenocarcinoma), A431 (human squamous carcinoma) and A549 (human lung carcinoma).
(§4) Protocol: Cytotoxicity Assay
(§5) The ass ay w as co nducted i n 9 6-well flat-bottom mi crotiter plates using the parameters summarised i n Tabl e S 2 and as described in [S2].
(§6) Cell lines L929 and KB 3.1 were incubated at 37 °C under 10 % CO2 in Gibco™ DMEM medium (Thermo Fisher Scientific, Waltham, MA, USA) supplemented with 10 % FBS. A microtiter plate was filled with 120 µL of this suspension (50,000/mL) in each well.
(§7) Seperately, another microtiter plate was filled with 100 µL of growth medium in each well. Then, 50 µL of the test compound sol utions (1 mg/mL) were given to wells of the first column in two replicates (one compound per row). C ell s wi thout addi ti ves, Me O H, and MeOH: DMSO 9+1 were used as negative controls. Starting from the first column, 50 µL of the solutions were gradually transferred to the ne xt col umn, the conte nts thoroughl y mi xed, and 50 µ L transferred to the following column. This created a serial dilution of the test compounds r anging from 333 µg/mL to 1.9 ×10−3 µg/mL. The remai ni ng 50 µL after column twelve were discarded. From this microtiter plate, 60 µL of the sol utions from 111 µg/ mL to 1.9×10−3 µg/mL were given to the first plate containing 120 µL of the cel l suspens i ons (i.e. the hi ghest concentrati on 333 µg/mL was not used). T his resulted i n fi nal compound concent rati ons rangi ng from […]
(§8) After 5 days of incubation under the aforeme ntioned i ncubati on condi ti ons, the half maximum inhibitory concentrati ons (IC 50) were determined using a colorimetric tetrazolium dye MTT assay [S3].
(§9) For this, 20 µL of a 5 mg/mL solution of 3-( 4 ,5 -dimethyl-2-thi azo l yl)-2 ,5 -di phenyl -2H-tetrazolium bromide (MTT) w ere added to each well and incubated for two hours at 37 °C. Then, the microtiter plate was centrifuged (3,000 r p m, 5 mi n) and the supernat ant remo ved by ho l di ng the pl ate upsi de-do wn and gentle shaking. Afterwards, the wells were washed using 100 µL of phosph ate buffered saline (PBS).
(§10) The plate was again centrifuged and the supernatant removed as described before. Then, 100 µL of an isopropanol:HCl solution (1L i sopropanol+4 mL HCl 37 % w/v) were added to the wells. After i ncubati ng fo r 10 mi n at ambi ent te mperature, the a bso r pti o n of the well s at 595 nm was measured wi th an I nfi ni te ® 200 Pro microplate reader (TECAN, Männedorf, Schweiz).
(§11) The absorption values of the cells without additives were averaged and set to 100 % cell viability.
(§12) Then, t he me ans of absorption of the two compound replicates were set in relation to the blank media.
(§13) These percentage values were plotted a gainst the concentration range (37 µg/mL to 0.6×10 −3 µg/mL). […]

[2] = tested on: A549 (human lung carcinoma); settings: Homo sapiens, 120 h, A549, 5 days, value in µg/mL, read-out: half-maximum inhibitory concentration (IC50)
Method: as §1, §2, §3, §4, §5, §6, §7, §8, §9, §10, §11, §12, §13

[3] = tested on: KB 3.1 (human endocervical adenocarcinoma); settings: 5 days
Method: as §1, §2, §4, §5, §6, §7, §8, §9, §10, §11, §12
These percentage values were plotted a gainst the concentration range (37 µg/mL to 0.6×10 −3 µg/mL).
The IC50 val ue w as read from the plot ( i n µg/mL) and the uni ts conversed to µM.
If effects were observed wi th cell lines L929 and KB 3.1 (IC50 < 50 µM), the other cell lines were tested using the same protocol.
Table S2: Cytotoxicity assay experiment parameters cell line type No. growth medium […]

Compound | IC50 [1] | IC50 [2] | IC50 [3]
COc1cccc2c3c(ccc12)-c1ccc(O)c2c(O)ccc-3c12 [Compound 2, viridistratin B] | 0.34 µg/mL (≈ 1.08 µM) | 0.45 µg/mL (≈ 1.43 µM) | –
COc1cccc2c3c(ccc12)-c1ccc(O)c2c(OC)ccc-3c12 [Compound 3, viridistratin C] | – | – | 85.4 µM

From publication PMC7277860, “Viridistratins A−C, Antimicrobial and Cytotoxic Benzo[j]fluoranthenes from Stromata of Annulohypoxylon viridistratum (Hypoxylaceae, Ascomycota)” (Biomolecules, 2020)
